In patent US6670168B1, “Recombinant Streptomyces hygroscopicus host cells that produce 17-desmethylrapamycin” (Kosan Bioscience, Inc., priority 1999, dated 2003):

Assay: immunosuppressive activity compared with rapamycin (no test described)
Conditions: relative to rapamycin; qualitative statement, no method or data given

SMILES: COC1CC(CC(C)C2CC(=O)C(C)C=C(C)C(O)CC(=O)C(C)CC(C)C=CC=CC=C(C)C(O)CC3CCC(C)C(O)(O3)C(=O)C(=O)N3CCCCC3C(=O)O2)CCC1O (stereo not shown) [16-desmethyl-27-desmethoxyrapamycin]
- immunosuppressive activity: lower immunosuppressive activity than rapamycin
